Measurements as given in ChEMBL document CHEMBL4651402, “Screening of ~5500 FDA-approved drugs and clinical candidates for anti-SARS-CoV-2 activity” (2021).

Tested on: SARS-CoV-2
Assay: microbe, parasite or virus in culture
Settings: Severe acute respiratory syndrome coronavirus 2, Vero C1008, 48 h

SMILES | IC50 [µM] | IC50 (read-out: pIC50 (converted)) [µM]
Cc1ccc(=O)n(-c2ccccc2)c1 [PIRFENIDONE] | > 20 | > 20
Cc1c(N(C)C)c(=O)n(-c2ccccc2)n1C [AMINOPYRINE] | > 20 | > 20
CCN(CC)C(=O)C1CN2CCc3cc(OC)c(OC)cc3C2CC1OC(C)=O (stereo not given) [BENZQUINAMIDE] | > 20 | > 20
N=C(N)NC(=N)Nc1ccccc1 [PHENYL BIGUANIDE] | > 20 | > 20
CC12CCC(=O)C(O)=C1CCC1C2CCC2(C)C1CC[C@]2(C)O (stereo not given in full) | > 20 | > 20
CCOc1cc(N)c([N+](=O)[O-])cc1C(=O)NC1CCN(CC2CC=CCC2)CC1 (stereo not given) [CINITAPRIDE] | > 20 | > 20
Oc1ccc(Cl)cc1Sc1cc(Cl)ccc1O [FENTICLOR] | > 20 | > 20
C[C@@H]1CC[C@@]2(NC1)O[C@H]1C[C@H]3[C@@H]4CC=C5C[C@@H](O)CC[C@]5(C)[C@H]4CC[C@]3(C)[C@H]1[C@@H]2C | > 20 | > 20
CC(C)Cc1ccc(C(C)C(=O)O)cc1 (stereo not given) [IBUPROFEN] | > 20 | > 20
Cc1ccc(Cc2cc3c(=O)n([C@H]4CCCC[C@@H]4O)cnc3c3ccccc23)cn1 [MK-7622] | > 20 | > 20
C=C1[C@H](n2ccc(N)nc2=O)O[C@H](CO)[C@H]1O | > 20 | > 20
CN(Cc1cnc2nc(N)nc(N)c2n1)c1ccc(C(=O)NC(CCC(=O)O)C(=O)O)cc1 (stereo not given) | > 20 | > 20
CCCCN1CCCCC1C(=O)Nc1c(C)cccc1C (stereo not given) [BUPIVACAINE] | > 20 | > 20
CCCCCCCCCC(=O)OCCN1CCN(CCCN2c3ccccc3Sc3ccc(C(F)(F)F)cc32)CC1 [FLUPHENAZINE DECANOATE] | > 20 | > 20
CCN(CC)CCNC(=O)N(CCS(=O)(=O)c1ccccc1)C(C)C [SURICAINIDE] | > 20 | > 20
CCN(CC)CCN1C(=O)CN=C(c2ccccc2F)c2cc(Cl)ccc21 [FLURAZEPAM] | > 20 | > 20
CC1=N[C@H](C(=O)O)[C@@H](O)CN1 | > 20 | > 20
C/C=C1\[C@H]2C=C(C)C[C@]1(N)c1ccc(=O)[nH]c1C2 [HUPERZINE A] | > 20 | > 20
CC12CCC(CC1)C(C)(C)O2 [EUCALYPTOL] | > 20 | > 20
C[C@@H]1O[C@@H](O[C@H]2C[C@@H](O)[C@]3(CO)[C@H]4[C@H](O)C[C@]5(C)[C@@H](C6=CC(=O)OC6)CC[C@]5(O)[C@@H]4CC[C@]3(O)C2)[C@H](O)[C@H](O)[C@H]1O [OUABAIN] | > 20 | > 20

SMILES | IC50 [µM] | IC50 (read-out: pIC50 (converted)) [µM]
Cc1cn2nc([C@@H]3CCCCN3C(=O)c3cc(Cl)ccc3NS(C)(=O)=O)cc2nc1N1CC[C@H](N)C1 [PRESATOVIR] | > 20 | > 20
CCC1(CC)C(=O)NC(=O)NC1=O [BARBITAL] | > 20 | > 20
COc1cc(NC(C)CCCN)c2ncccc2c1 (stereo not given) [PRIMAQUINE] | > 20 | > 20
CCN(CC)C(=O)Nc1ccc(OCC(O)CNC(C)(C)C)c(C(C)=O)c1 (stereo not given) [CELIPROLOL] | > 20 | > 20
C[C@@H]1CCC2[C@H](C)C3CC[C@@]4(O)[C@@H]5CC(=O)[C@H]6CC(=O)CC[C@]6(C)C5C[C@H]4[C@@H]3CN2C1 (stereo not given in full) | > 20 | > 20
CC(=O)OCC(=O)[C@H]1CC[C@H]2[C@@H]3CCC4=CC(=O)CC[C@]4(C)[C@H]3CC[C@]12C [DESOXYCORTICOSTERONE ACETATE] | > 20 | > 20
O=c1[nH]c2ccccc2n1CCCN1CCC(n2c(=O)[nH]c3cc(Cl)ccc32)CC1 [DOMPERIDONE] | > 20 | > 20
C[C@H](C#Cc1ccc(Cc2ccc(F)cc2)s1)N(O)C(N)=O [ATRELEUTON] | > 20 | > 20
O=C(O)Cn1c2c(c3cc(F)ccc31)CN(C(=O)c1cccc3ccccc13)CC2 [SETIPIPRANT] | > 20 | > 20
CC(=O)O[C@H]1C[C@@]2(C)[C@@H](C[C@@H](O)[C@H]3[C@@]4(C)CC[C@@H](O)[C@@H](C)[C@@H]4CC[C@@]32C)/C1=C(\CCC=C(C)C)C(=O)O [FUSIDIC ACID] | > 20 | > 20
CC[C@@H]1C(=O)OC[C@@H]1Cc1cncn1C [PILOCARPINE] | > 20 | > 20
O[C@@H](CNC[C@H](O)[C@H]1CCc2cc(F)ccc2O1)[C@@H]1CCc2cc(F)ccc2O1 | > 20 | > 20
C[C@H]1C(=O)O[C@@H]2CCN3CC=C(COC(=O)[C@](C)(O)[C@]1(C)O)[C@H]23 [MONOCROTALINE] | > 20 | > 20
CN(C)[C@@H](CCOc1cccc2ccccc12)c1ccccc1 [DAPOXETINE] | > 20 | > 20
C[C@]1(O)C[C@@H](c2nc(-c3ccc4ccc(-c5ccccc5)nc4c3)c3c(N)nccn32)C1 [LINSITINIB] | > 20 | > 20
Nc1nc2[nH]cc(CCc3ccc(C(=O)N[C@@H](CCC(=O)O)C(=O)O)cc3)c2c(=O)[nH]1 [PEMETREXED] | > 20 | > 20
CC(=O)C12OC(C)(C)OC1CC1C3CCC4=CC(=O)CCC4(C)C3CCC12C (stereo not given) | > 20 | > 20
CN[C@@H](C)Cc1ccccc1 [METHAMPHETAMINE] | > 20 | > 20
CN(C(=O)c1ccc(F)cc1C(F)(F)F)C1CCN(c2nnc(-c3ccnn3C)c3ccccc23)CC1 [TALADEGIB] | > 20 | > 20
Cn1c(=O)c2c(ncn2CC2OCCO2)n(C)c1=O [DOXOFYLLINE] | > 20 | > 20

SMILES | IC50 [µM] | IC50 (read-out: pIC50 (converted)) [µM]
COc1cc2nccc(Oc3ccc(NC(=O)Nc4cc(C)on4)c(Cl)c3)c2cc1OC [TIVOZANIB] | > 20 | > 20
C=C1C(=O)OC2C[C@@]3(C)CCC[C@H](C)C3=CC12 (stereo not given in full) | > 20 | > 20
NC(=O)C(CCN1CCN2CCCC2C1)(c1ccccc1)c1ccccc1 (stereo not given) [PIROLAZAMIDE] | > 20 | > 20
NC(=O)NS(=O)(=O)c1ccc(N)cc1 [SULFACARBAMIDE] | > 20 | > 20
CCc1ccc(OCc2ccccc2C(=O)Nc2ccc3nc(C)cc(N)c3c2)cc1 | > 20 | > 20
Cc1cccc(C)c1NC(=O)C1CCCCN1C (stereo not given) [MEPIVACAINE] | > 20 | > 20
CO/N=C/C1=CCCN(C)C1 [MILAMELINE] | > 20 | > 20
C[C@@H](NCCc1ccc(O)cc1)[C@@H](O)c1ccc(O)cc1 [rel-RITODRINE] | > 20 | > 20
CCc1nc(C)ccc1O [EMOXYPINE] | > 20 | > 20
Cc1nc(C(=O)NCC(=O)O)c(O)c2ccc(Oc3ccccc3)cc12 [ROXADUSTAT] | > 20 | > 20
CCCc1ccc(C(=O)O)nc1 | > 20 | > 20
COc1ccccc1[C@H](Cn1c(=O)n(C(C)(C)C(=O)O)c(=O)c2c(C)c(-c3ncco3)sc21)OC1CCOCC1 [FIRSOCOSTAT] | > 20 | > 20
CC12CC(=O)C3C(CC[C@H]4CC(O)CCC34C)C1CCC2C(=O)CO (stereo not given in full) | > 20 | > 20
C=CC[C@]1(O)CC[C@H]2[C@@H]3CCC4=CCCC[C@@H]4[C@H]3CC[C@@]21C [ALLYLESTRENOL] | > 20 | > 20
Cc1ccc(O)c([C@H](CCN(C(C)C)C(C)C)c2ccccc2)c1 [TOLTERODINE] | > 20 | > 20
NS(=O)(=O)c1cc(C(=O)NN2CC3C4CCC(C4)C3C2)ccc1Cl (stereo not given) | > 20 | > 20
COc1ccc2c3c1O[C@H]1C[C@@H](O)C=C[C@@]31CCN(C)C2 [GALANTAMINE] | > 20 | > 20
Cn1cc(-c2cccc3cc(C(=O)NC(=N)N)ccc23)cn1 | > 20 | > 20
NC(=O)CC[C@H](N)C(=O)O [GLUTAMINE] | > 20 | > 20
COC1=C[C@@H]2[C@@H]3Cc4ccc(OC)c(O)c4[C@]2(CCN3C)CC1=O [SINOMENINE] | > 20 | > 20
